Assay results taken from patent US5621010A, “Urea derivatives and their use as ACAT inhibitors” (Nisshin Flour Milling Co., Ltd., priority 1993, dated 1997).

Tests used:
[1] = Cholesterol-lowering activity in hypercholesteremic rats; type: in vivo, Sprague-Dawley male rats; conditions: 30 mg/kg oral, in 0.5% methylcellulose; plasma cholesterol prior to and 5 hrs after administration
Procedure: Sprague-Dawley male rats were given a powdery feed containing 1% cholesterol and 0.5% cholic acid in an amount of 15 g per day per animal for 3 days to produce hypercholesteremic rats. Four days later, a compound suspended in 0.5% methylcellulose was administered orally at a dose of 30 mg/kg. Blood was drawn prior to and 5 hrs after the administration of the compound, for which the plasma cholesterol level was measured using a commercially available assay kit (Cholesterol E Test Wako, Wako Junyaku K.K.).

Human LDL = test: Antioxidative activity: inhibition of MDA formation from LDL incubated with cupric sulfate; type: biochemical; conditions: compound 10^-5 M; cupric sulfate 5×10^-6 M; 5 hrs; compared with control
Procedure: Human LDL was incubated in the presence of cupric sulfate (5×10^-6 M) and in the presence or absence of a compound (10^-5 M) for 5 hrs. After the incubation, the peroxidation of low-density lipoproteins (LDL) is evaluated by the formation of malondialdehyde (MDA), which is a sort of lipid peroxides according to the method of Simon J. T. Mao et al. (J. Med. Chem., Vol. 34, pages 298-302, 1991). Activity of the compound is shown by percent inhibition of the MDA formation as compared with control.

[2] = test system: ACAT (liver microsome fractions of male rabbits); test: ACAT inhibitory activity: formation of labelled cholesteryl esters from [1-14C]oleoyl-CoA and endogenous cholesterol; type: biochemical, rabbit; conditions: compound added at 10^-7 M
Procedure: The enzyme preparation, ACAT was prepared from liver microsme fractions of male rabbits according to the method of E. E. Largis et al. (Journal of Lipid Research, Vol. 30, pages 681-690, 1989). The activity was calculated by assaying the amount of the labelled cholesteryl esters formed from [1-^14 C]oleoyl-CoA and endogenous cholesterol according to the method of Kazuichi NATORI et al. (Japan J. Pharmacol., Vol. 42, pages 517-523, 1986).
The result is shown in Table 1, in which percent inhibition of the formation of the labelled cholesteryl esters with a compound added at 10^-7 M is indicated as index for the ACAT inhibitory activity.

CN(C(=O)Nc1ccccc1CCc1cc(C(C)(C)C)c(O)c(C(C)(C)C)c1)C1CCN(Cc2ccccc2)CC1 [Example 92, N-[2-(3,5-di-tert-butyl-4-hydroxyphenethyl)phenyl]-N'-(1-benzyl-4-piperidyl)-N'-methylurea]
Percent Reduction of Cholesterol [1]: 79.9% | Antioxidant Activity (percent inhibition of the MDA formation) (Human LDL): 96% | ACAT Inhibition [2]: 99%

CC(C)(C)c1cc(CCc2cc(F)cc(F)c2NC(=O)NC2CCN(Cc3ccccc3)CC2)cc(C(C)(C)C)c1O [Example 108, N-[2-(3,5-di-tert-butyl-4-hydroxyphenethyl)-4,6-difluorophenyl]-N'-(1-benzyl-4-piperidyl)urea]
Percent Reduction of Cholesterol [1]: 71.8% | Antioxidant Activity (percent inhibition of the MDA formation) (Human LDL): 93% | ACAT Inhibition [2]: 97%

CC(C)(C)c1cc(CCc2ccccc2NC(=O)N2CCCC3CCCCC32)cc(C(C)(C)C)c1O (stereo not drawn) [Example 130, 1-[N-[2-(3,5-di-tert-butyl-4-hydroxyphenethyl)phenyl]carbamoyl]decahydroquinoline]
Percent Reduction of Cholesterol [1]: 71.5% | Antioxidant Activity (percent inhibition of the MDA formation) (Human LDL): 95% | ACAT Inhibition [2]: 99%
